Paper PMC12689647, “Evaluation of bromadiolone combined with ciprofloxacin, vitamin D, aspirin, and cinnamon as an apoptosis-mediated rodenticide strategy” (Scientific Reports, 2025)
Read-outs that look alike come from different tables or passages of the source.

Assays:
cleaved caspase-3 = experiment: Western blot of liver tissue, cleaved caspase-3; assay type: in vivo, Rattus norvegicus; conditions: Western blot normalized to β-actin, oral, 21 days
Description: (§1) Adult male rats (n = 7 × 9 = 63), weighing 150–200 g, were randomized and divided into seven groups. Group I served as the control. Group II received the vehicle control (0.1 ml/100 g ethanol). Group III was treated with bromadiolone (B) at ½ LD₅₀ (0.8 mg/kg)[28]. Group IV received bromadiolone (0.8 mg/kg) + ciprofloxacin (Anti.20 mg/kg)[29]. Group V received bromadiolone (0.8 mg/kg) + ciprofloxacin (20 mg/kg) + vitamin D (Vit. D 35 mg/kg)[30]. Group VI received bromadiolone (0.8 mg/kg) + ciprofloxacin (20 mg/kg) + vitamin D (35 mg/kg) + cinnamon (Cin. 2 g/kg)[31]. Group VII received bromadiolone (0.8 mg/kg) + ciprofloxacin (20 mg/kg) + vitamin D (35 mg/kg) + aspirin (A. 150 mg/kg)[32]. All doses were administered orally to wild rats over 21 days. The chemical we used for the euthanizing process: rats were narcotized by Ketamine + xylazine injection (IP) and then sacrificed by slaughtering.
For the immunodetection and quantification of proteins such as p21 and cleaved caspase-3, markers of apoptotic cell death under various treatments, liver tissue was homogenized using RIPA lysis buffer. The samples were chopped and briefly sonicated on ice, and protein concentration was measured. Proteins (20 µg) were separated using SDS-PAGE and transferred to a nitrocellulose membrane. […] The optical densities of the bands were quantified and normalized to β-actin (1:5000) using ImageJ software.

liver DNA = assay type: in vivo, Rattus norvegicus; conditions: oral, 21 days
Description: as §1
For the coated slides, 100 µL of cell suspension was mixed with 600 µL of low-melting agarose (0.8% in PBS). The coated slides were immersed for 15 min in a lysis solution containing 2.5% sodium dodecyl sulfate (SDS) and 0.045 M Tris-borate-EDTA (TBE) buffer at pH 8.4. The slides were then placed in an electrophoresis chamber filled with TBE buffer without SDS. Electrophoresis was conducted at 100 mA for two minutes at 2 V/cm. Staining was performed at 4 °C using 20 µg/mL ethidium bromide (EtBr). EtBr-stained DNA was visualized using a fluorescent microscope with a 40× objective and an excitation filter of 420–490 nm to detect DNA damage. Qualitative and quantitative assessments of tail length, tail moment, olive tail moment, and percentage of DNA in the head were determined using OpenComet software to evaluate five images.

liver cells = experiment: Apoptosis estimation by acridine orange fluorescence staining; assay type: in vivo, Rattus norvegicus; conditions: AO staining, oral, 21 days
Description: as §1
Before staining with 0.01% acridine orange (AO) (stock solution: 0.1% AO in distilled water, diluted with phosphate buffer to a staining solution at pH 7.2), the sample was quickly passed through a graded alcohol series (80 − 50%) followed by distilled water. […] Acridine orange emits sharp green fluorescence when bound to DNA (apoptosis).

liver of male wild rats [1] = experiment: Hepatic lipid peroxidation (LPO) and reduced glutathione (GSH); assay type: in vivo, Rattus norvegicus; conditions: oral, 21 days
Description: as §1
Determination of ionized calcium, RBC count, Hb, and prothrombin time (PT) was conducted at a private biochemical laboratory in Assiut, Egypt, using a Genuri KT-6400 automatic hematology analyzer (China). ALT and AST activities in blood plasma were measured using specific kits (Boehringer Mannheim, Mannheim, Germany) according to the manufacturer’s instructions. […]. The concentration of reduced glutathione (GSH) was estimated based on[37] and measured using spectrophotometry.

liver of male wild rats [2] = experiment: Semi-quantitative scoring of histopathological lesions in the liver (H&E); assay type: in vivo, Rattus norvegicus; design: key to Fatty deposition / Hemorrhage / Thickening of blood vessels / Loss of liver architecture: (-) Absent lesion; (+) Slight (< 25%); (++) Moderate (from 25–50%); (+++) Severe (> 50%); conditions: liver H&E lesion score; oral, 21 days
Description: as §1
. Hematoxylin, eosin stains was applied to 5 μm-thick paraffin Sect[38]. Four categories were established based on the histological evaluation of nine liver tissue lesions: (−) no lesion, (+) mild (less than 25%), (++) moderate (between 25% and 50%), and (+++) severe (more than 50%)[39]. We examined about 5 photos for each rat in each groups; 5 × 63 = 315 photos for assessments. Examination and photography were conducted using a digital camera (ToupTek ToupView, copyright 2019, version x86, compatible with Windows XP/Vista/7/8/10, China) and a light microscope (Olympus CX31, Japan).

[3] = test system: male wild rats of Rattus norvegicus; assay type: in vivo; conditions: oral

O=c1oc2ccccc2c(O)c1C(CC(O)c1ccc(-c2ccc(Br)cc2)cc1)c1ccccc1 (centres unmarked) [Bromadiolone]
increase in cleaved caspase-3 level compared to the control (cleaved caspase-3): 75.92% | degree of liver DNA damage by comet assay (liver DNA; liver comet assay photomicrographs): moderate amount of damaged DNA | increase in olive tail moment (OTM) compared to the control (liver DNA; liver comet assay): 710.02% | increase in tail DNA% (T.DNA%) compared to the control (liver DNA; liver comet assay): 222.35% | increase in tail length (TL) compared to the control (liver DNA; liver comet assay): 155.04% | increase in tail moment (TM) compared to the control (liver DNA; liver comet assay): 506.09% | decrease in normal cells compared to the control (liver cells): 18.66% | increase in apoptotic cells compared to the control (liver cells): 109.72% | LPO, Mean ± SE (liver of male wild rats [1]; control 1.458 ± 0.1402): 1.660 ± 0.1817 nmol/ mg protein | GSH, Mean ± SE (liver of male wild rats [1]; control 10.42 ± 0.4500): 6.953 ± 0.1538 ng/mg protein | Cellular infiltration (liver of male wild rats [2]): ++ ((++) Moderate (from 25–50%)) | Congested blood vessels (liver of male wild rats [2]): ++ ((++) Moderate (from 25–50%)) | Dilated blood sinusoids (liver of male wild rats [2]): + ((+) Slight (< 25%)) | Fatty deposition (liver of male wild rats [2]): - | Features of necrosis: Karyolysis (liver of male wild rats [2]): + ((+) Slight (< 25%)) | Features of necrosis: Karyorrhexis (liver of male wild rats [2]): + ((+) Slight (< 25%)) | Features of necrosis: Pyknosis (liver of male wild rats [2]): ++ ((++) Moderate (from 25–50%)) | Hemorrhage (liver of male wild rats [2]): - | Loss of liver architecture (liver of male wild rats [2]): - | Necrotic areas (liver of male wild rats [2]): + ((+) Slight (< 25%)) | Thickening of blood vessels (liver of male wild rats [2]): - | Vacuolated cytoplasm (liver of male wild rats [2]): ++ ((++) Moderate (from 25–50%)) | Observed response % ([3]; time 5 days): 50% | Observed response % ([3]; time 6 days): 62.5% | Linear probit ([3]; time 6 days, probit fit): 5.4393 | Linear response % ([3]; time 6 days, probit fit): 66.9788%
